Activity calls are given as the source filed them.
Experiments:
Aminopeptidase N = target: T1, Aminopeptidase N (Plasmodium falciparum FcB1/Columbia, UniProt O96935); assay: P. falciparum M1AAP inhibitors, biochemical, fluorogenic H-Leu-NHMec substrate, 1536-well (AID 1445); design: species or system Plasmodium falciparum 3D7, 3D7
T1 sequence (O96935 whole entry): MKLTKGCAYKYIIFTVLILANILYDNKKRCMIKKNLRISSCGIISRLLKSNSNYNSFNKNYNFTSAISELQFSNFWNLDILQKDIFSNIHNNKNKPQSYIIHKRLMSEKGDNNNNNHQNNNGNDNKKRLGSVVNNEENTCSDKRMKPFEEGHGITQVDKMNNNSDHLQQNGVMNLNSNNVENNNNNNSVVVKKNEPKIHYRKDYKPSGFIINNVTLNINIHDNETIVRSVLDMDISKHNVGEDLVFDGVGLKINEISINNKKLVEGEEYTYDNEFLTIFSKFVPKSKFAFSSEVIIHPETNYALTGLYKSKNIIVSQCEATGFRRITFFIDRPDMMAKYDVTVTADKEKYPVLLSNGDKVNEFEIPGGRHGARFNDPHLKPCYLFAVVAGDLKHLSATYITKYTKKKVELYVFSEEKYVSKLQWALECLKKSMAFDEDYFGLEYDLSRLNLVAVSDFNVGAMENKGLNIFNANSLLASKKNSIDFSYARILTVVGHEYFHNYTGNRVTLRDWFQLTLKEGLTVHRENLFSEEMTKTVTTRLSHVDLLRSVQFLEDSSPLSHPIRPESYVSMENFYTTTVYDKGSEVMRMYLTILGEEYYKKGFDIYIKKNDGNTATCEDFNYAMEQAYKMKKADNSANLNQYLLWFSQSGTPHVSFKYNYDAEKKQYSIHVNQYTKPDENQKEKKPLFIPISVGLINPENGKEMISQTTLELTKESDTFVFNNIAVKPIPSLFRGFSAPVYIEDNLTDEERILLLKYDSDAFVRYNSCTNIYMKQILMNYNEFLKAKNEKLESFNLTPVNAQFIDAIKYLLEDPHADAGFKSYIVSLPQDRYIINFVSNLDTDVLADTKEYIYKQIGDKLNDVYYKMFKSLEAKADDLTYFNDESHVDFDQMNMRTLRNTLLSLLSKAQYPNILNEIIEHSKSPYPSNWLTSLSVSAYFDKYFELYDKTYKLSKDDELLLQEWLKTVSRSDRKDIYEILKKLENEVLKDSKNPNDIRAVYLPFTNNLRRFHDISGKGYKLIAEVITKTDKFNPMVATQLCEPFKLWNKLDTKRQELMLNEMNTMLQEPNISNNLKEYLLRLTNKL

[1] = cytotoxicity in KRAS-transformed pancreatic duct cells, primary screen, cell-based, fluorescence, HTS (AID 431); format: functional; details: Homo sapiens;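 further: cell line used: HPDE-C7K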
[2] = Luminescence Cell-Based Dose Response HTS to Identify Inhibitors of 5'UTR Stem-Loop Driven Prion Protein mRNA Translation in H4 Neuroglioblastoma Cells. [Related pubchem assays: 1827 (Project Summary), 1813 (Primary HTS)]; format: functional
[3] = inhibitors of SNCA 5'UTR-driven reporter translation, confirmation, H4 neuroglioma cells, luminescence (AID 1988); format: functional, cell-based
[4] = inhibitors of firefly luciferase expression or activity, dose response, H4 neuroglioma cells, luminescence (AID 1990); format: functional, cell-based
[5] = cytotoxicity in HEK-293T cells, dose response, cytotoxicity control for TCR NF-kB inhibitor project, luminescence, T-cell screen hits (AID 489026); format: functional, cell-based;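 further: cells exposed to compound about 14 hours before the viability readout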
[6] = cytotoxicity in HPDE-C7 cells, cell-based, fluorescence, HTS (AID 430); format: functional; details: Homo sapiens
[7] = target: Voltage-dependent T-type calcium channel subunit alpha-1H (Homo sapiens, UniProt O95180); format: functional;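 further: channel activity triggered by adding a high calcium stimulation buffer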
Cytochrome P450 2C9 = Cytochrome P450 2C9 (Homo sapiens, UniProt P11712)
[8] = target: DNA dC->dU-editing enzyme APOBEC-3G (Homo sapiens, UniProt Q9HC16); format: functional;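 further: Dose-response counterscreen measuring inhibition of APOBEC3G DNA deaminase activity, run while confirming APOBEC3A inhibitors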
[9] = target: Luciferin 4-monooxygenase (Photinus pyralis, UniProt P08659); assay: firefly luciferase enzyme inhibitors, dose response, biochemical, luminescence (AID 1891)
[10] = Luminescence Cell-Based Dose Confirmation HTS to Identify Inhibitors of Platelet Dense Granule Release. [Related pubchem assays: 1663 (Primary HTS), 1678 (Summary of Project)]; format: functional
[11] = target: DNA dC->dU-editing enzyme APOBEC-3A (Homo sapiens, UniProt P31941); assay: Dose Response confirmation of small molecule APOBEC3A DNA Deaminase Inhibitors via a fluorescence-based single-stranded DNA deaminase assay. [Related pubchem assays (depositor defined):AID493011, AID493024]; format: functional
[12] = target: T2, Ubiquitin-conjugating enzyme E2 N (Homo sapiens, UniProt P61088); format: functional;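 further: Dose-response confirmation in a TR-FRET assay detecting UBC13-driven polyubiquitin chain formation, inhibition measured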
T2 sequence (P61088 whole entry): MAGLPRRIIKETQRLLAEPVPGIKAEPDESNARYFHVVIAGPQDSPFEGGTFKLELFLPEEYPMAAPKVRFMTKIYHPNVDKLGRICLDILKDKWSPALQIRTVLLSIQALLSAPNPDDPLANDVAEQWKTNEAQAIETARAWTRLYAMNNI

[13] = target: T3, Microphthalmia-associated transcription factor (Homo sapiens, UniProt O75030); assay: TRPM1 promoter luciferase signal decrease, dose response, MITF inhibitor project, cell-based, SK-MEL-5, cherry-picked, set 3 (AID 493073); format: functional
T3 sequence (O75030 whole entry): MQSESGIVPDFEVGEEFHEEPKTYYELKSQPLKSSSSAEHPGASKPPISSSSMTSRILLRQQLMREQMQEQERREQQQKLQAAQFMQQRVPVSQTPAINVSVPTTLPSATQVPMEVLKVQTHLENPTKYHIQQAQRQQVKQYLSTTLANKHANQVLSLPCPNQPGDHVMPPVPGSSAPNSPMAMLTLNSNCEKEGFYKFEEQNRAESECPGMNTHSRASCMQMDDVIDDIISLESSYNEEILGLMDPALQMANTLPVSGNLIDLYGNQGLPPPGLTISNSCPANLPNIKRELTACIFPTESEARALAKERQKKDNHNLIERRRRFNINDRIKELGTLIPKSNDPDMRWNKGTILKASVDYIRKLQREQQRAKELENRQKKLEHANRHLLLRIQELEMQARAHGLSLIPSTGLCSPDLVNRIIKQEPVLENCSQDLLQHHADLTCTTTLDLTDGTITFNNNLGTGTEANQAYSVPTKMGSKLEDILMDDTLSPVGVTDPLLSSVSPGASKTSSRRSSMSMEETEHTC

HEK293 = assay: inhibitors of LMP1-driven NF-kB reporter, dose response, cell-based, HEK293, luciferase, cherry-pick (AID 588343); format: functional; details: Homo sapiens
INS1 = assay: beta cell apoptosis inhibitors, cytokine rescue, dose response, luminescence, retest (AID 449756); format: functional, cell-based; details: Rattus norvegicus;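 further: cell death triggered by IL-1 beta plus TNF-alpha plus IFN-gamma mixture; protective hits raise ATP signal compared with cytokine alone wells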

Cytochrome P450 2C9, sequence (P11712 whole entry): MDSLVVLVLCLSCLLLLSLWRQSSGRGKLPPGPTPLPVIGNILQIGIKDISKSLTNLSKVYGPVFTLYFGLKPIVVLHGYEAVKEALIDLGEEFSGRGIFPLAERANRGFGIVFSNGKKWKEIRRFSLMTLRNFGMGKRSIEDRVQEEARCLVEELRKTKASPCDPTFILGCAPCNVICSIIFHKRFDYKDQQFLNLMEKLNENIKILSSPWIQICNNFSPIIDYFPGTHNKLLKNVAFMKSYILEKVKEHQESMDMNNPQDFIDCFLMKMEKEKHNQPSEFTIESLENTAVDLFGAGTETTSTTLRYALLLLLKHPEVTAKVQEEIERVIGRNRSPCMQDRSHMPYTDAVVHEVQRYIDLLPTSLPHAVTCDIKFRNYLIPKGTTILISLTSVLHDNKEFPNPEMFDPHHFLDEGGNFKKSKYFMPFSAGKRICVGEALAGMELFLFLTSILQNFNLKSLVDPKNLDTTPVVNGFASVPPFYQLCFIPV
DNA dC->dU-editing enzyme APOBEC-3A, sequence (P31941 whole entry): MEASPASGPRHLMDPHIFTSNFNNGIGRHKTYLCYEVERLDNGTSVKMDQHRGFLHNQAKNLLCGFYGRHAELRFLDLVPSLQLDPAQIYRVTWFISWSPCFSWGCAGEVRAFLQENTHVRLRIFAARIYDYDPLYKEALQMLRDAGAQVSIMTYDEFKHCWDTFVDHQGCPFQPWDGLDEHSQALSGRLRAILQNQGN
DNA dC->dU-editing enzyme APOBEC-3G, sequence (Q9HC16 whole entry): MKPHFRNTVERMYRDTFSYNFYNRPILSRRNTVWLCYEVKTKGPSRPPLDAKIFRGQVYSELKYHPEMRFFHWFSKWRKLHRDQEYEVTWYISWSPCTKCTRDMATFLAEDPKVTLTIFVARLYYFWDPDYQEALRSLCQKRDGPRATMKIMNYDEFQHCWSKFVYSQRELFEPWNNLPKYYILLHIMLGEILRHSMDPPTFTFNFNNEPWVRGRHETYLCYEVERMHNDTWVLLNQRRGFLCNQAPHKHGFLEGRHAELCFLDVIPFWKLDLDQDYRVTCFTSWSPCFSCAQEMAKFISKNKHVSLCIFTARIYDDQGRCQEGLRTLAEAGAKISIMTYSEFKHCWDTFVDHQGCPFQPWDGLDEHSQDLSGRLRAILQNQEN
Voltage-dependent T-type calcium channel subunit alpha-1H, sequence (O95180 whole entry): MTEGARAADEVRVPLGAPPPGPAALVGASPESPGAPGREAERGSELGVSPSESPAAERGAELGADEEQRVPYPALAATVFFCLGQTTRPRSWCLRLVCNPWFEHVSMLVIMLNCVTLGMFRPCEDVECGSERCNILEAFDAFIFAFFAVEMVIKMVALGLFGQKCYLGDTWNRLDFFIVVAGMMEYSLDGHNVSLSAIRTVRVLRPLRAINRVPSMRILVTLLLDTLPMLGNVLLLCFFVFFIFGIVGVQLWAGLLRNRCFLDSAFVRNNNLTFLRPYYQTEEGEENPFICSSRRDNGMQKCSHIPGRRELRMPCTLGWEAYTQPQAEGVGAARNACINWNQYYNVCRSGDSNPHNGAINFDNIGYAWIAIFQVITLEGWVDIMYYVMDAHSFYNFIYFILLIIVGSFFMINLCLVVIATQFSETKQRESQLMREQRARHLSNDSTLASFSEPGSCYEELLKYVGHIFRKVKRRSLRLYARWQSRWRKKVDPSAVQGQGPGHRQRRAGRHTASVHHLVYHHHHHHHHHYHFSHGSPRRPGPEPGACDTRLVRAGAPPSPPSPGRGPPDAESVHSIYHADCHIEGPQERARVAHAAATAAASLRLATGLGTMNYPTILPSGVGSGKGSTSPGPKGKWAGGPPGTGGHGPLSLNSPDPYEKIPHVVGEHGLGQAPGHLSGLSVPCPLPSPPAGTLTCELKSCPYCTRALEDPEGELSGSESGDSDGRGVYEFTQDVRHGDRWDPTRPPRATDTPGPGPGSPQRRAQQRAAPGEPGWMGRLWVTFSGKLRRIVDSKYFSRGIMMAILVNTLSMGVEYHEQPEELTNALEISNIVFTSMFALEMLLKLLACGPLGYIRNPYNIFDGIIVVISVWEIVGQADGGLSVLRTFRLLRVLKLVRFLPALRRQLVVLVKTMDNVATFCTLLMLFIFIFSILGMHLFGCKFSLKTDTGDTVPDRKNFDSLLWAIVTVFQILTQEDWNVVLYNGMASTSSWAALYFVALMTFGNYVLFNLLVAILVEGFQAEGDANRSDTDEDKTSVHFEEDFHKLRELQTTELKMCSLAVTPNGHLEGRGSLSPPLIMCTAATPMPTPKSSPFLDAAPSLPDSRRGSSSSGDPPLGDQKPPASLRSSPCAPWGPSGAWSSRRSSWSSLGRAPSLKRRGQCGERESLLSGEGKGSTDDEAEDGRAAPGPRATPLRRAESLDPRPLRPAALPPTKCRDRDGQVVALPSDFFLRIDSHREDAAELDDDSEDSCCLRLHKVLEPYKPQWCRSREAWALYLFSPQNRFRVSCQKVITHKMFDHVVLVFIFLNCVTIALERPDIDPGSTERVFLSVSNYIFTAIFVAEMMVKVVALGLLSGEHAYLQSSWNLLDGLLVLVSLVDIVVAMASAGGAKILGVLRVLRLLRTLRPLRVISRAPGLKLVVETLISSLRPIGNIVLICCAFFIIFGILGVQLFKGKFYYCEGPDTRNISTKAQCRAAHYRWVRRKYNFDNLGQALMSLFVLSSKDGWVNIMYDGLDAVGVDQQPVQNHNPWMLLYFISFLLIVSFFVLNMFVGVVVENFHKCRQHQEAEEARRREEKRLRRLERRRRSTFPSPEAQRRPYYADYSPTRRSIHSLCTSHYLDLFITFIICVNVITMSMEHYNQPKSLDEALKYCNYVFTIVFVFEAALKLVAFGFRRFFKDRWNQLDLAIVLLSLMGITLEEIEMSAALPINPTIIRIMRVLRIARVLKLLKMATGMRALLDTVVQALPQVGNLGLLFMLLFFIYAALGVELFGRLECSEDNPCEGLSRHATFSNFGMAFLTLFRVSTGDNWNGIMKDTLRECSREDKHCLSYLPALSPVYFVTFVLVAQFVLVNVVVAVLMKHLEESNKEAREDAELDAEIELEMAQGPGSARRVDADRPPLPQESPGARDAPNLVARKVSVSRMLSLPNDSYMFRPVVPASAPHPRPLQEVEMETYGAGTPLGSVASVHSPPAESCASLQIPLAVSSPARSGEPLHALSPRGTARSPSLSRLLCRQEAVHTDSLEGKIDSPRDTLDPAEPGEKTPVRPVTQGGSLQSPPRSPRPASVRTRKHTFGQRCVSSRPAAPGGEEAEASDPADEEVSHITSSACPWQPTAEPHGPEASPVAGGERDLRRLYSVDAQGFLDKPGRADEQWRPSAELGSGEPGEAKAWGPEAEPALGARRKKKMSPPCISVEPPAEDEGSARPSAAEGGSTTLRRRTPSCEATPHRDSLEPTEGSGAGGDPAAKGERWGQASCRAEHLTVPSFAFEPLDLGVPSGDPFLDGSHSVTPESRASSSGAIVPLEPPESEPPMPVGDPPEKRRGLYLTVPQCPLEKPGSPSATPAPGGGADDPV
Luciferin 4-monooxygenase, sequence (P08659 whole entry): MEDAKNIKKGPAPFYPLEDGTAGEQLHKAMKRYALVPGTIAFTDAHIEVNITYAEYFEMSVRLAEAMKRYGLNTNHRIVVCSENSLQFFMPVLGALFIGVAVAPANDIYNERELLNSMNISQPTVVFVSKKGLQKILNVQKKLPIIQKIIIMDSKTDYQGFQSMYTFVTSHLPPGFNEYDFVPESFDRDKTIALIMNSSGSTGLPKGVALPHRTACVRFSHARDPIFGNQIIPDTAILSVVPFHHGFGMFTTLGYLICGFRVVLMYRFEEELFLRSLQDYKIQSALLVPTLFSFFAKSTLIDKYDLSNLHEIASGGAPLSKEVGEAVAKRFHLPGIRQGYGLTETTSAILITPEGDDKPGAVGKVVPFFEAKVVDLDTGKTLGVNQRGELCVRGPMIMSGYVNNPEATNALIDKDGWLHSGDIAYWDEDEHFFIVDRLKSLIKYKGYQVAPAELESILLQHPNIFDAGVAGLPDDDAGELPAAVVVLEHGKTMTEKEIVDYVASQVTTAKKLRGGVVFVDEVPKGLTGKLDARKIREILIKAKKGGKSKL

With `CC(c1nc2ccccc2o1)N1C(=O)c2ccccc2C1=O` (centres undefined) as the compound, how does the IC50 (Aminopeptidase N) read?
The IC50 was 79.5 µM (active).

With `COC(=O)c1[nH]c2ccc(Br)cc2c1NC(=O)CN1CCN(C2CCCCC2)CC1` as the compound, how does the EC50 [1] read?
Its EC50 is > 20 µM (not active).

And the EC50 [2]?
The EC50 was 12.9 µM (active).

And the EC50 [3]?
Its EC50 is 7.79 µM (active).

What about the EC50 [4] of the same compound?
The EC50 was 12.2 µM (active).

And the IC50 [5]?
Its IC50 is 22.4 µM (inactive).

And the EC50 [6]?
The EC50 was > 20 µM (not active).

For `COc1cccc(CNC(=O)C2CCN(Cc3cnn(-c4ccccc4)c3-n3cccc3)CC2)c1`, which EC50 [7] is on record?
The EC50 was 9.81 µM (active).

For `COc1ccccc1CC(=N)NOC(=O)c1ccc(C)c([N+](=O)[O-])c1`, which AC50 (Cytochrome P450 2C9) is on record?
Its AC50 is “inconclusive”.

For `COC(=O)c1[nH]c2ccc(Cl)cc2c1NC(=O)CN1CCc2cc(OC)c(OC)cc2C1`, which IC50 [8] is on record?
The IC50 was 7.77 µM (active).

What about the EC50 [9] of the same compound?
The EC50 was > 112 µM (not active).

What about the EC50 [10] of the same compound?
Its EC50 is > 112 µM (not active).

What about the IC50 [11] of the same compound?
The IC50 was 3.18 µM (active).

Which IC50 [8] does the source give for `COC(=O)C1=C(C)N(Cc2ccccc2)C(NCC(C)C)=N[C@H]1c1cccc(C(F)(F)F)c1` here?
Its IC50 is 4.22 µM (active).

And the IC50 [12]?
The IC50 was > 20 µM (inactive).

And the AC50 [13]?
The AC50 was 15 µM (active).

What about the IC50 [11] of the same compound?
Its IC50 is 2.88 µM (active).

Which AC50 (HEK293) does the source give for `O=C1C=Cc2cccc3ccc(O)c1c23` here?
The AC50 was 18.1 µM (active).

For `COC(=O)[C@@]1(Cc2ccccc2)[C@H]2C(=O)N(Cc3ccccc3)C(=O)[C@H]2[C@H]2CN=C(SCc3ccc(Cl)cc3)N21`, which AC50 (HEK293) is on record?
The AC50 was 6.5 µM (active).

Which AC50 (INS1) does the source give for `CCN(c1ccccc1)S(=O)(=O)c1ccc(C(=O)NC2CCN(Cc3ccccc3)CC2)cc1` here?
Its AC50 is 2.31 µM (active).

What about the IC50 [5] of the same compound?
The IC50 was > 80 µM (inactive).

For `Cn1nc(C(F)(F)F)c(/C=N/OC(=O)c2ccccc2)c1Cl`, which AC50 (Cytochrome P450 2C9) is on record?
Its AC50 is “inactive”.

For `CC/N=c1\sc2ccccc2n1CC(O)COc1ccccc1` (centres undefined), which EC50 [7] is on record?
Its EC50 is 29.1 µM (active).

For `CCN(CC)C(=O)C(=O)N/N=C/c1cccc(Br)c1`, which AC50 (Cytochrome P450 2C9) is on record?
Its AC50 is “inconclusive”.
